Test results published in US4780476A, “Azoniaspironortropanol esters as asthma therapeutics and broncholytics” (Madaus GmbH & Co., priority 1985, dated 1988).

Test system: T1, isolated tracheal spirals of the guinea pig (Cavia porcellus)
T1 construct: the whole of the trachea is roughly freed beginning from the larynx up to the tracheal bifurcation, removed and transferred; from tissue; host or cells: isolated trachea (spiral strips) of male Pirbright white guinea pigs
Assay: anticholinergic effectiveness on isolated tracheal spirals (antagonism against acetyl-β-methylcholine chloride)
Settings: ratio of maximum agonist effect in presence (EAmB) and absence (EAm) of antagonist
From the text: A model for this is the measurement of the anticholinergic effectiveness on isolated tracheal spirals of the guinea pig.
The test substance used was 3α-benziloyloxynortropane-8-spiro-1'-pyrrolidinium chloride (trospium chloride; MP 194), ipratropium bromide being used as comparison substance.
There is to be determined the anticholinergic effectiveness of MP 194 in comparison with the reference substance ipratropium bromide on the isolated tracheal spirals of the guinea pig.
3.1.1. animal species: guinea pig
3.1.2. animal strain: Pirbright white
3.3.1. test substance (test antagonist) trospium chloride (MP 194) (M.W. 428)
3.3.2. reference substance (reference antagonist) ipratropium bromide (Atrovent) (M.W. 412.4)
3.3.3.1. acetyl-β-methylcholine chloride (Sigma) (M.W. 195.7)
The guinea pig is stunned by a blow on the neck. Subsequently, the whole of the trachea is roughly freed beginning from the larynx up to the tracheal bifurcation, removed and transferred to tempered (37° C.) and carbogenized tyrode solution. After surrounding connective tissue has been removed as far as possible, the preparation is cut up spirally by means of fine scissors at an angle of about 45° and separated into two equal sized sections. After weighing, both preparations are provided proximally and distally with a silk thread. One thread serves for fixing the preparation by means of a loop to the bottom of the bath and the other is connected via a hook with the transducer above the bath vessel.
Subsequently, the preparations, corresponding to the calibration, are prestressed with about 80 mN and equilibrated from 50-100 minutes. During the equilibration phase, the nutrient solution in the bath vessels is renewed in 15 minute intervals. As soon as the resting muscle tonus of the preparation has stabilized, there takes place the cumulative addition of the agonist, whereby the addition of the next highest concentration first takes place when no further increase of contraction is recognisable (plateau). When the maximum contraction height of the preparation is achieved, the cumulative agonist addition is ended and the preparation is rinsed. After a further equilibration phase (v. supra), the cumulative addition of the agonist is repeated but this time in the presence of the test or reference antagonist.
3.6.1. The perfusion part consists of an L-shaped organ bath in the hollow space of which (longer limb) runs a double glass spiral through which the nutrient solution is passed into the actual bath vessel (28 ml. content; shorter limb). This bath vessel is divided into two chambers which are, however, connected together by two transverse connections. […] The inlet chambers as well as the feeding glass spirals are tempered from the outside to 37° C. by a separate liquid circulation. This tempering takes place with the help of a "Colora" ultra-thermostat type K (Colora Messtechnik GmbH, Dusseldorf, Germany) which serves as thermostat and pump. In order, in case of need, always to have available ready-for-use nutrient solution, above the organ bath is provided a double-walled storage container in which the nutrient solution is also tempered and carbogenised. This is connected via a glass stopcock and a polypropylene tube with double glass spiral in the interior of the organ bath.
3.6.2. The measurement and recording part includes a transducer (Statham-Universal-Zelle UC-2; Hugo Sachs Elektronic KG, Hugstetten, Germany). By means of a hanging-in weight, a force of 40 mN is produced on the transducer which passes as electrical signal via a connecting cable to a bridge amplifier. The amplification is smoothly so regulated that the force provided corresponds to a constant value on the scale or an analogous value on the millimeter paper of the recorder (dependent upon the amplification; see below). After fixing the organ, the preparation is prestressed to the doubled mark, corresponding to 80 mN. […]

T1 sequence (H0W1Z3 1-590): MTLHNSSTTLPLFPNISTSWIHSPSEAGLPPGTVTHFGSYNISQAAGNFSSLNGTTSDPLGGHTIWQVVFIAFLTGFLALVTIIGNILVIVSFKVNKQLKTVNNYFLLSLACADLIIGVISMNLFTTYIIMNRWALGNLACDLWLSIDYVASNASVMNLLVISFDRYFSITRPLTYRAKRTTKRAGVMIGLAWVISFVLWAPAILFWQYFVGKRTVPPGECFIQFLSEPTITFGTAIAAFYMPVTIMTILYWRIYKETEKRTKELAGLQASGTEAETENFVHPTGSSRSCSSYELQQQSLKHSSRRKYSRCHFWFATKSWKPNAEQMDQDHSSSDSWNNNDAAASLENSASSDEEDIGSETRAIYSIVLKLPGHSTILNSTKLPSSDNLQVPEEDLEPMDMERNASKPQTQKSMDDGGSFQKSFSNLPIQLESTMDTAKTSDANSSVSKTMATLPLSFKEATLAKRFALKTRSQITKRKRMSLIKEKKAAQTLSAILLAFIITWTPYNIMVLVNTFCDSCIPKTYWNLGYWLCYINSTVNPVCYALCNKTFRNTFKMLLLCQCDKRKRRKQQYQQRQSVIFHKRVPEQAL

Compound: O=C(O[C@H]1C[C@H]2CC[C@@H](C1)[N+]21CCCC1)C(O)(c1ccccc1)c1ccccc1 [trospium chloride, 3α-benziloyloxynortropane-8-spiro-1'-pyrrolidinium chloride]
- EAmB/EAm ± s: 1.09 ± 0.22
